# Experimental data published in ChEMBL document CHEMBL1138648, “Synthesis of new N-(2-(trifluoromethyl)pyridin-4-yl)anthranilic acid derivatives and their evaluation as anticancer agents” (2004).
# How the values were obtained:
# Assay type in all cases: functional
# NCI-H460 [1] = experiment: In vitro percent of proliferation of vehicle treated NCI-H460 human lung cell lines was determined at 0.0010 M concentration
# MCF7 [2] = experiment: In vitro percent of proliferation of vehicle treated MCF-7 human breast cell lines was determined at 0.0010 M concentration
# SF-268 [3] = experiment: In vitro percent of proliferation of vehicle treated SF-268 human CNS cell lines was determined at 0.0010 M concentration
# BT-549 = experiment: Growth inhibitory activity against Breast cancer BT-549 cell line was determined; details: Homo sapiens
# OVCAR-5 = experiment: Growth inhibitory activity against Ovarian cancer OVCAR-5 cell line was determined; details: Homo sapiens
# SF-268 [4] = experiment: Growth inhibitory activity against CNS cancer SF-268 cell line was determined; details: Homo sapiens
# HOP-92 = experiment: Growth inhibitory activity against non small cell lung cancer HOP-92 cell line was determined; details: Homo sapiens
# SN12C = experiment: Growth inhibitory activity against Renal cancer SN12C cell line was determined; details: Homo sapiens
# NCI-H23 = experiment: Growth inhibitory activity against non small cell lung cancer NCI-H23 cell line was determined; details: Homo sapiens
# Hs-578T = experiment: Growth inhibitory activity against Breast cancer HS 578T cell line was determined; details: Homo sapiens
# MOLT-4 = experiment: Growth inhibitory activity against Leukemia MOLT-4 cell line was determined; details: Homo sapiens
# OVCAR-3 = experiment: Growth inhibitory activity against Ovarian cancer OVCAR-3 cell line was determined; details: Homo sapiens
# LOX IMVI = experiment: Growth inhibitory activity against Melanoma LOX IMVI cell line; details: Homo sapiens
# HCT-15 = experiment: Growth inhibitory activity against colon cancer HCT-15 cell line was determined; details: Homo sapiens
# NCI-H322M = experiment: Growth inhibitory activity against non small cell lung cancer NCI-H322M cell line was determined; details: Homo sapiens
# SK-MEL-5 = experiment: Growth inhibitory activity against Melanoma SK-MEL-5 cell line was determined; details: Homo sapiens
# NCI-H460 [5] = experiment: Growth inhibitory activity against non small cell lung cancer H460 cell line was determined; details: Homo sapiens
# RXF 393 = experiment: Growth inhibitory activity against Renal cancer RXF 393 cell line was determined; details: Homo sapiens
# ACHN = experiment: Growth inhibitory activity against Renal cancer ACHN cell line was determined; details: Homo sapiens
# EKVX = experiment: Growth inhibitory activity against non small cell lung cancer EKVX cell line was determined; details: Homo sapiens
# HL-60 = experiment: Growth inhibitory activity against Leukemia HL-60(TB) cell line was determined; details: Homo sapiens
# NCI-H522 = experiment: Growth inhibitory activity against non small cell lung cancer H522 cell line was determined; details: Homo sapiens
# K562 = experiment: Growth inhibitory activity against Leukemia K-562 cell line was determined; details: Homo sapiens
# HCT-116 = experiment: Growth inhibitory activity against colon cancer HCT116 cell line was determined; details: Homo sapiens
# U-251 = experiment: Growth inhibitory activity against CNS cancer U251 cell line was determined; details: Homo sapiens
# COLO 205 = experiment: Growth inhibitory activity against colon cancer COLO 205 cell line was determined; details: Homo sapiens
# KM12 = experiment: Growth inhibitory activity against colon cancer KM12 cell line was determined; details: Homo sapiens
# OVCAR-8 = experiment: Growth inhibitory activity against Ovarian cancer OVCAR-8 cell line was determined; details: Homo sapiens
# 786-0 = experiment: Growth inhibitory activity against Renal cancer 786-0 cell line was determined; details: Homo sapiens
# UACC-62 = experiment: Growth inhibitory activity against Melanoma UACC-62 cell line was determined; details: Homo sapiens
# NCI-H226 = experiment: Growth inhibitory activity against non small cell lung cancer NCI-H226 cell line was determined; details: Homo sapiens
# MDA-MB-435 = experiment: Growth inhibitory activity against Breast cancer MDA-MB-435 cell line was determined; details: Homo sapiens
# CAKI-1 = experiment: Growth inhibitory activity against Renal cancer CAKI-1 cell line was determined; details: Homo sapiens
# UACC-257 = experiment: Growth inhibitory activity against Melanoma UACC-257 cell line was determined; details: Homo sapiens
# SK-MEL-28 = experiment: Growth inhibitory activity against Melanoma SK-MEL-28 cell line was determined; details: Homo sapiens
# MCF7 [6] = experiment: Growth inhibitory activity against Breast cancer MCF-7 cell line was determined; details: Homo sapiens
# SF-295 = experiment: Growth inhibitory activity against CNS cancer SF-295 cell line was determined; details: Homo sapiens
# TK-10 = experiment: Growth inhibitory activity against Renal cancer TK-10 cell line was determined; details: Homo sapiens
# HT-29 = experiment: Growth inhibitory activity against colon cancer HT-29 cell line was determined; details: Homo sapiens
# A549 = experiment: Growth inhibitory activity against non small cell lung cancer A549/ATCC cells; details: Homo sapiens
# PC-3 = experiment: Growth inhibitory activity against Prostate cancer PC-3 cell line was determined; details: Homo sapiens
# HOP-62 = experiment: Growth inhibitory activity against non small cell lung cancer HOP-62 cell line was determined; details: Homo sapiens
# MDA-MB-231 = experiment: Growth inhibitory activity against Breast cancer MDA-MB-231/ATCC cell line was determined; details: Homo sapiens
# SNB-19 = experiment: Growth inhibitory activity against CNS cancer SNB-19 cell line was determined; details: Homo sapiens
# M14 = experiment: Growth inhibitory activity against Melanoma M14 cell line was determined; details: Homo sapiens
# SW-620 = experiment: Growth inhibitory activity against colon cancer SW-620 cell line was determined; details: Homo sapiens
# SR = experiment: Growth inhibitory activity against Leukemia SR cell line was determined; details: Homo sapiens
# CCRF-CEM = experiment: Growth inhibitory activity against Leukemia CCRF-CEM cell line was determined; details: Homo sapiens
# A498 = experiment: Growth inhibitory activity against Renal cancer A498 cell line was determined; details: Homo sapiens
# HCC 2998 = experiment: Growth inhibitory activity against colon cancer HCC2998 cell line was determined; details: Homo sapiens
# SF-539 = experiment: Growth inhibitory activity against CNS cancer SF-539 cell line was determined; details: Homo sapiens
# RPMI-8226 = experiment: Growth inhibitory activity against Leukemia RPMI-8226 cell line was determined; details: Homo sapiens
# DU-145 = experiment: Growth inhibitory activity against Prostate cancer DU-145 cell line was determined; details: Homo sapiens
# NCI/ADR-RES = experiment: Growth inhibitory activity against Breast cancer NCI/ADR-RES cell line was determined; details: Homo sapiens
smiles,measurement,setting,value
COCCCNC(=O)c1ccccc1Nc1ccnc(C(F)(F)F)c1,Proliferation,NCI-H460 [1],105%
same,Proliferation,MCF7 [2],70%
same,Proliferation,SF-268 [3],97%
CCOC(=O)c1ccccc1Nc1ccnc(C(F)(F)F)c1,Proliferation,NCI-H460 [1],102%
same,Proliferation,MCF7 [2],98%
same,Proliferation,SF-268 [3],103%
O=C(Oc1c(Cl)cc(Cl)cc1Cl)c1ccccc1Nc1ccnc(C(F)(F)F)c1,GI50,BT-549,2.4 µM
same,GI50,OVCAR-5,4.1 µM
same,GI50,SF-268 [4],3.9 µM
same,GI50,HOP-92,100 µM
same,GI50,SN12C,3.1 µM
same,GI50,NCI-H23,2.6 µM
same,GI50,Hs-578T,2.6 µM
same,GI50,MOLT-4,100 µM
same,GI50,OVCAR-3,4.3 µM
same,GI50,LOX IMVI,2 µM
same,GI50,HCT-15,2.7 µM
same,GI50,NCI-H322M,20 µM
same,GI50,SK-MEL-5,3.1 µM
same,GI50,NCI-H460 [5],3.4 µM
same,GI50,RXF 393,9.5 µM
same,GI50,ACHN,2.4 µM
same,GI50,EKVX,3.3 µM
same,GI50,HL-60,3.9 µM
same,GI50,NCI-H522,5.7 µM
same,GI50,K562,2.4 µM
same,GI50,HCT-116,1.7 µM
same,GI50,U-251,3 µM
same,GI50,COLO 205,6.3 µM
same,GI50,KM12,4.1 µM
same,GI50,OVCAR-8,3 µM
same,GI50,786-0,2.9 µM
same,GI50,UACC-62,1.7 µM
same,GI50,NCI-H226,5.9 µM
same,GI50,MDA-MB-435,1.6 µM
same,GI50,CAKI-1,7.1 µM
same,GI50,UACC-257,12 µM
same,GI50,SK-MEL-28,24 µM
same,GI50,MCF7 [6],4.7 µM
same,Proliferation,NCI-H460 [1],9%
same,GI50,SF-295,4.2 µM
same,GI50,TK-10,3.4 µM
same,GI50,HT-29,4.6 µM
same,GI50,A549,3.9 µM
same,Proliferation,MCF7 [2],12%
same,GI50,PC-3,15 µM
same,GI50,HOP-62,2.7 µM
same,GI50,MDA-MB-231,3.2 µM
same,Proliferation,SF-268 [3],55%
same,GI50,SNB-19,7.1 µM
same,GI50,M14,2.1 µM
same,GI50,SW-620,4.6 µM
O=C(Nc1ccncc1)c1ccccc1Nc1ccnc(C(F)(F)F)c1,Proliferation,NCI-H460 [1],99%
same,Proliferation,MCF7 [2],79%
same,Proliferation,SF-268 [3],96%
O=C(Oc1ccc(Cl)cc1Cl)c1ccccc1Nc1ccnc(C(F)(F)F)c1,GI50,SR,0.77 µM
same,GI50,BT-549,6.8 µM
same,GI50,OVCAR-5,7.9 µM
same,GI50,SF-268 [4],3.1 µM
same,GI50,HOP-92,12 µM
same,GI50,SN12C,3 µM
same,GI50,CCRF-CEM,3.5 µM
same,GI50,NCI-H23,3.5 µM
same,GI50,Hs-578T,25 µM
same,GI50,MOLT-4,100 µM
same,GI50,OVCAR-3,11 µM
same,GI50,HCT-15,2.2 µM
same,GI50,NCI-H322M,14 µM
same,GI50,SK-MEL-5,2.8 µM
same,GI50,NCI-H460 [5],4.3 µM
same,GI50,ACHN,13 µM
same,GI50,A498,21 µM
same,GI50,EKVX,19 µM
same,GI50,HL-60,6.6 µM
same,GI50,NCI-H522,4.6 µM
same,GI50,HCC 2998,3.2 µM
same,GI50,K562,3 µM
same,GI50,SF-539,3.8 µM
same,GI50,KM12,3.7 µM
same,GI50,OVCAR-8,4.8 µM
same,GI50,786-0,1.9 µM
same,GI50,UACC-62,2.3 µM
same,GI50,NCI-H226,3.4 µM
same,GI50,MDA-MB-435,2.9 µM
same,GI50,CAKI-1,2.1 µM
same,GI50,UACC-257,11 µM
same,GI50,MCF7 [6],3.6 µM
same,Proliferation,NCI-H460 [1],1%
same,GI50,SF-295,15 µM
same,GI50,TK-10,4.1 µM
same,GI50,A549,11 µM
same,Proliferation,MCF7 [2],3%
same,GI50,RPMI-8226,2.4 µM
same,GI50,PC-3,8.3 µM
same,GI50,DU-145,16 µM
same,GI50,MDA-MB-231,2.2 µM
same,GI50,NCI/ADR-RES,3.6 µM
same,Proliferation,SF-268 [3],9%
same,GI50,M14,1.9 µM
same,GI50,SW-620,4.6 µM
COc1cccc(OC(=O)c2ccccc2Nc2ccnc(C(F)(F)F)c2)c1,GI50,BT-549,8.1 µM
same,GI50,OVCAR-5,3.5 µM
same,GI50,SF-268 [4],4.7 µM
same,GI50,HOP-92,5.7 µM
same,GI50,SN12C,5.4 µM
same,GI50,NCI-H23,2 µM
same,GI50,Hs-578T,4.9 µM
same,GI50,MOLT-4,0.69 µM
same,GI50,OVCAR-3,1.6 µM
same,GI50,LOX IMVI,1.1 µM
same,GI50,HCT-15,2.8 µM
same,GI50,NCI-H322M,7.4 µM
same,GI50,SK-MEL-5,2.2 µM
same,GI50,NCI-H460 [5],4.1 µM
same,GI50,RXF 393,21 µM
same,GI50,ACHN,3.4 µM
same,GI50,EKVX,6.6 µM
same,GI50,HL-60,2.1 µM
same,GI50,NCI-H522,7.6 µM
same,GI50,K562,0.74 µM
same,GI50,HCT-116,1.1 µM
same,GI50,U-251,2.9 µM
same,GI50,COLO 205,2.2 µM
same,GI50,KM12,2.6 µM
same,GI50,OVCAR-8,3.6 µM
same,GI50,786-0,3.4 µM
same,GI50,UACC-62,3.1 µM
same,GI50,NCI-H226,8.1 µM
same,GI50,MDA-MB-435,1 µM
same,GI50,CAKI-1,2.7 µM
same,GI50,UACC-257,5.4 µM
same,GI50,SK-MEL-28,12 µM
same,GI50,MCF7 [6],7.6 µM
same,Proliferation,NCI-H460 [1],13%
same,GI50,SF-295,2.5 µM
same,GI50,TK-10,11 µM
same,GI50,HT-29,3.7 µM
same,GI50,A549,3.2 µM
same,Proliferation,MCF7 [2],42%
same,GI50,RPMI-8226,1 µM
same,GI50,PC-3,3.2 µM
same,GI50,HOP-62,2.8 µM
same,GI50,MDA-MB-231,2.1 µM
same,Proliferation,SF-268 [3],43%
same,GI50,SNB-19,3.5 µM
same,GI50,M14,1.3 µM
same,GI50,SW-620,4.4 µM
COc1ccc(OC(=O)c2ccccc2Nc2ccnc(C(F)(F)F)c2)cc1,Proliferation,NCI-H460 [1],49%
same,Proliferation,MCF7 [2],74%
same,Proliferation,SF-268 [3],105%
